Experimental data: PubChem BioAssay AID463074 (Broad Institute, 2010)
Calls of active or inactive are those of the source.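 Rule for the calls: active = AC50 no more than tenfold above the top dose tested, or full inhibition at every dose with a flat fit (cut at about 19 µM in these data); inconclusive = flat curve fit with inhibition between 30% and 70%, or poor fit; inactive = AC50 more than tenfold above the top dose tested.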

tested on: HMLE_sh_eGFP viability, CellTiter-Glo luminescence, 72 h; assay: cytotoxicity in HMLE control line with eGFP shRNA, dose response, counter-screen for HMLE_sh_ECad selective toxicity project, cell-based, HMLE_sh_eGFP, luminescence (AID 463074);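 note: counterscreen control line to flag general toxicity for the HMLE_sh_ECad screen; potency for loss of viability as luminescence drops below DMSO wells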

Compound | AC50
CCNS(=O)(=O)c1ccc(NC(=O)Nc2cccc(C(F)(F)F)c2)cc1 | 13.5 µM
CC(=O)Oc1ccc(C2=NN(c3ccccc3)C(c3ccccc3)C2)cc1 (stereo not given) | 4.18 µM
Nc1c(C(O)(C(F)(F)F)C(F)(F)F)cc(C(O)(C(F)(F)F)C(F)(F)F)c2ccccc12 | 3.95 µM
COc1ccc(-c2csc3nc(-c4ccccc4F)oc(=O)c23)cc1OC | 3.86 µM
COc1ccc(Cc2nnc(N/N=C/c3ccc(O)cc3O)[nH]c2=O)cc1OC | 8.14 µM
O=C1Nc2ccc(Cl)cc2[C@@](C#CC2CC2)(C(F)(F)F)O1 | 7.55 µM
Cc1cc(/C=N/n2c(COc3ccccc3)nc3ccccc3c2=O)c(O)c([N+](=O)[O-])c1 | > 10 µM (inactive)
Cc1nn2c(COc3ccc(NC(=O)c4ccccc4Cl)cc3)nnc2c2ccccc12 | 3.08 µM
Oc1cccc(/C=C/c2ccc3cccc(O)c3n2)c1 | 4.83 µM
Cc1ccc(N2NC(=O)/C(=C\c3cc4c(cc3[N+](=O)[O-])OCO4)C2=O)cc1C | 4.44 µM
Cc1cc(NCCCn2ccnc2)n2nc(C)c(-c3ccc(Cl)cc3)c2n1 | 6.46 µM
Cc1cccc(Cn2cc(/C=C/[N+](=O)[O-])c3ccccc32)c1 | 3.47 µM
Cc1cc(N/N=C/c2ccccc2Cl)nc(NCc2ccccc2)n1 | 4.04 µM
O=[N+]([O-])c1cc(C(F)(F)F)ccc1NCCc1c[nH]c2ccccc12 | 4.16 µM
Cc1cc(SCC(=O)N/N=C/c2ccc(O)cc2O)nc2ccccc12 | 4.75 µM
O=C(Nc1ccccc1N1CCCCC1)c1ccc(Cl)c([N+](=O)[O-])c1 | 3.24 µM
O=C(Nc1ccc(Cl)c(Cl)c1)Nc1ccccc1NS(=O)(=O)c1cccs1 | 13.6 µM
COc1cccc(-c2cc3nc4c(c(N5CCC6(CC5)OCCO6)n3n2)CCCC4)c1 | 9.81 µM
COc1cc(/C=N/O)cc(Br)c1OCc1cccc(Cl)c1 | 6.68 µM
COc1ccc2c(c1)-c1nc(NC(=O)c3cccs3)sc1CC2 | 11.3 µM
CC(C)N1CCN(Cc2ccc(OCc3ccccc3)cc2)CC1CCO (stereo not given) | 11.5 µM
COC(=O)c1cc(=O)n(Cc2cccs2)c(=Nc2ccccc2)s1 | 4.57 µM
Cc1nn(Cc2ccc(Cl)c(Cl)c2)c(C)c1NC(=O)c1cc(-c2ccc3c(c2)OCO3)on1 | 1.56 µM
CCN1CCN(Cc2ccc(OCc3ccccc3)cc2)CC1 | 4.38 µM
CCc1nc(N2CCN(Cc3ccc4c(c3)OCO4)CC2)c2oc3ccccc3c2n1 | 3.85 µM

Compound | AC50
CCCCc1ccc(/C(C)=N/Nc2cc(N3CCOCC3)nc(C)n2)cc1 | 4.99 µM
CCc1ccc(-c2cc(C(=O)N3N=C(C(F)F)CC3(O)C(F)F)c3ccccc3n2)cc1 (stereo not given) | 6.4 µM
Cc1ccc(C)c(NC(=O)c2ccccc2NS(=O)(=O)c2cc([N+](=O)[O-])ccc2C)c1 | 4.27 µM
O=[N+]([O-])c1cc(S(=O)(=O)C(F)(F)F)ccc1Sc1nc2ccccc2[nH]1 | 4.46 µM
CCOC(=O)c1c(-c2ccccc2)csc1NC(=O)c1nn(CC)cc1Br | 0.478 µM
C[C@@H]1O[C@@H](O[C@H]2C[C@@H](O)[C@]3(CO)[C@@H]4C(CC[C@]3(O)C2)[C@@]2(O)CC[C@H](C3COC(=O)C3)[C@@]2(C)C[C@H]4O)[C@H](O)[C@H](O)[C@H]1O (stereo not given in full) | 0.707 µM
Cc1cccc(NC(=O)c2nc[nH]c2C(=O)N[C@H](C)c2ccccc2)c1 | 7.13 µM
CCCCNc1nc(Nc2ccc(C)c(Cl)c2)c2cnn(C)c2n1 | 11.5 µM
CC(=O)Nc1ccc(C2CC(c3ccc(Cl)cc3)=NN2c2ccccc2)cc1 (stereo not given) | 2.13 µM
N#Cc1c(-c2ccccc2)cc(-c2ccccc2)nc1SCCC(=O)O | 2.41 µM
CC1=NOC(=O)/C1=C\c1ccc(-c2cc(Cl)ccc2Cl)o1 | 1.06 µM
CN(C)/C=C(\C=N\OCc1ccc(Cl)cc1Cl)C(=O)Nc1ccc(Cl)c(Cl)c1 | 4.22 µM
CCOC(=O)c1c(NC(=O)C(c2ccccc2)c2ccccc2)sc2c1C1CCN2CC1 | 2.84 µM
CC1=C(/C=C/C(C)=C/C=C/C(C)=C/C(=O)Nc2ccc(O)cc2)C(C)(C)CCC1 | 2.26 µM
O=C(N/N=C/c1cc(Cl)cc([N+](=O)[O-])c1O)NC12CC3CC(CC(C3)C1)C2 | 4.59 µM
CCN(CC)S(=O)(=O)c1ccc(N/N=C/c2cc(OC)ccc2O)nc1 | 3.85 µM
O=C(Nc1cccc(-c2csc(Nc3ccc(Cl)cc3)n2)c1)c1cc([N+](=O)[O-])cc(C(F)(F)F)c1 | 6.88 µM
CN1CCN(/N=C/c2ccc(N(c3ccccc3)c3ccccc3)cc2)CC1 | 6.89 µM
COCCN(C(=O)C(C)C)c1nnc(-c2ccc(C(C)(C)C)cc2)s1 | 3.06 µM
COc1cc2sc(-c3ccccc3OC)c(-c3ccc(OCCN4CCCCC4)cc3)c2cc1OC | 4.24 µM
S=C(NCCC(c1ccccc1)c1ccccc1)Nc1cccc(Cl)c1 | 2.79 µM
Cc1cc(-c2ccccc2)nc(N/N=C/c2ccc(O)cc2O)n1 | 7.96 µM
O=C(Nc1ccn(Cc2ccccc2F)n1)c1ccc(COc2ccccc2Cl)cc1 | 3.52 µM
O=[N+]([O-])c1ccc(/C=N/n2cnc3ccccc32)s1 | 6.83 µM
CCOC(=O)/C(=C\c1ccc(Cl)cc1)c1nc2sc(C)c(C)c2c(=O)[nH]1 | 1.54 µM

Compound | AC50
Cc1ccc(C)c(NC(=S)NC(NC(=O)Cc2cccc3ccccc23)C(Cl)(Cl)Cl)c1 (stereo not given) | 1.97 µM
Cc1cc(C)cc(NC(=O)CSc2ccc(-c3ccccn3)nn2)c1 | 3.61 µM
CC(C)(C)c1cc(C(=O)NNc2cc(C(F)(F)F)ccc2Cl)n(Cc2ccccc2)n1 | 4.18 µM
Cc1ccc2nc(NNC(=O)c3ccc(S(=O)(=O)N4CCc5ccccc5C4)cc3)sc2c1 | 3.91 µM
CCCCNc1c(-c2ccc(-c3cccc(Cl)c3)cc2)nc2ccccn12 | 3.87 µM
COCCNc1cc(-c2ccccc2)nc2cc(-c3cccc(F)c3)nn12 | 13 µM
CCCc1ccc(-c2cc(NC(=O)CSc3nnc(N)s3)n(-c3ccccc3)n2)cc1 | 6.67 µM
CN(C)CCOc1ccc(-c2c(-c3ccsc3)sc3ccccc23)cc1 | 3.04 µM
C[C@H](CO)N1C[C@H](C)[C@@H](CN(C)S(=O)(=O)c2ccc(F)cc2)Oc2ccc(NC(=O)Nc3ccc(C(F)(F)F)cc3)cc2C1=O | 17.1 µM
Cc1cccc(NC(=S)N/N=C/c2c[nH]c3ccccc23)c1 | 1.63 µM
COc1ccc(-c2cc(-c3nc4ccccn4c3NCc3ccccc3)ccc2OC)cc1 | 1.96 µM
OCCCCC#Cc1c(-c2ccsc2)sc2ccccc12 | 5.56 µM
Cc1nn(Cc2ccccc2)c(C)c1C(=O)OCC(=O)c1cc(C)n(CC(F)(F)F)c1C | 14 µM
COc1ccc2sc(-c3ccc(N(C)C)cc3)c(C#Cc3cncn3C)c2c1 | 2.18 µM
O=C(Nc1cccc(-c2csc(-c3ccccc3)n2)c1)c1cccs1 | 5.22 µM
COc1ccc(OC)c(/C=C2\S/C(=N/NC(=O)c3ccc4ccccc4c3)NC2=O)c1 | 9.71 µM
CC(C)(C)c1cc(C=C(C#N)C#N)cc(C(C)(C)C)c1O | 3.08 µM
O=c1c2ccccc2nc2n1C1(CCCCC1)Cc1ccccc1-2 | 4.03 µM
c1ccc(CNc2nc(N3CCN(Cc4ccccc4)CC3)nc3ccccc23)cc1 | 3.91 µM
C/C(NC(=O)c1cccc(F)c1)=C1/C(=O)C[C@@H]2[C@H]1C2(C)C | 2.13 µM
O=C(COc1ccccc1-c1ccccc1)N/N=C/c1cccc2ccccc12 | 0.608 µM
C/C(=N\Nc1ccccc1)c1c(O)[nH]c(=O)[nH]c1=O | 2.25 µM
N#Cc1c(NC(=O)Cn2c(=O)oc3ccccc32)oc(-c2ccccc2)c1-c1ccccc1 | 4.24 µM
CCOc1ccc(N/C(N)=N/c2nc(CSc3nnc(C)s3)cc(=O)[nH]2)cc1 | 0.609 µM
COc1ccc(-c2sc3ccc(OC)cc3c2C#Cc2ccccn2)cc1 | 5.88 µM
